# Source: US20200030214A1, “USE OF COMPATIBLE SOLUTES” (MERCK PATENT GMBH, priority 2017, published 2020)
# Assays:
# Assay type in all cases: cell-based
# HaCaT keratinocytes [1] = experiment: Intracellular carbonylated protein (CP) levels in HaCaT keratinocytes cultured with oleic acid (FTSC fluorescence); conditions: HaCaT keratinocytes cultured in DMEM containing oleic acid at several concentrations for 48 h; FIG. 1
# Experimental: Protein carbonylation is initiated by reactive aldehyde compounds which are synthesized by lipid peroxidation. Since skin pores are always immersed by sebum, oleic acid which is one of the sebum components, is used as a source of intracellular synthesis of reactive aldehyde compounds to establish cells with accumulated carbonylated proteins.
# Cell culture: HaCaT keratinocytes are cultured in Dulbeco's modified Eagle's medium (DMEM) (Nissui, Tokyo, Japan) supplemented with 5% fetal bovine serum (FBS) (Thermofisher, Waltham, Calif., USA) at 37° C. in 5% CO2 and 95% air.
# For this example HaCaT keratinocytes are cultured in DMEM containing oleic acid at several concentrations for 48 h. After fixing with cold methanol for 5 min, cells are reacted with 20 μmol/L FTSC (Sigma-Aldrich, St. Louis, Mo., USA in 0.1 mol/L MES-Na buffer (pH 5.5) at room temperature for 1 h. Fluorescence intensities derived from CPs are measured at Ex/Em 492 nm/516 nm with a fluorescence microplate reader, TECAN SPARK 10M (Mannedorf, Switzerland). Numbers of cells are determined by measuring fluorescence intensities of nuclei stained with Hoechst 33342 (Sigma-Aldrich (St. Louis, Mo., USA)). Intracellular CP levels are calculated as fluorescence intensity of FTSC per fluorescence intensities of nuclei.
# HaCaT keratinocytes [2] = experiment: Effect of ectoin on suppression of intracellular carbonylated protein accumulation induced by oleic acid; conditions: 100 mM ectoin pre-treatment for 24 h, then 200 μM oleic acid for 48 h; FIG. 2
# Experimental: The effect of ectoin on carbonylated protein accumulation is analysed. In order to induce Hsp70, HaCaT keratinocytes are cultured with 100 mM ectoin (Merck KGaA, Germany) for 24 h. Cells are cultured with oleic acid for further 48 hours, and CP levels are determined. In this examination, 200 μM oleic acid is used to evaluate the effect of ectoin on CP accumulation in the cells. HaCaT keratinocytes are cultured in DMEM containing 5% FBS and 100 mM ectoin for 24 h. Cells are further cultured with DMEM containing 200 μM oleic acid for 48 h. After fixing with cold methanol for 5 min, cells are reacted with 20 μmol/L FTSC in 0.1 mol/L MES-Na buffer (pH 5.5) at room temperature for 1 h. Fluorescence intensities derived from CPs are measured at Ex/Em 492 nm/516 nm with a fluorescence microplate reader, TECAN SPARK 10M (Mannedorf, Switzerland). Numbers of cells are determined by measuring fluorescence intensities of nuclei stained with Hoechst 33342. Intracellular CP levels are calculated as fluorescence intensity of FTSC per fluorescence intensities of nuclei.
# HaCaT keratinocytes [3] = experiment: Protective effect against UVA induced carbonylated protein formation (SDS-PAGE, fluorescent labelling); conditions: 24 h, UVA 365 nm 33 J/cm^2, in comparison to the control, FIGS. 3 and 4
# Experimental: (§1) HaCaT keratinocytes are cultured in calcium-free DMEM (Dulbecco's Modified Eagle Medium), with 10% SVF, at 37° C. and humid atmosphere, supplemented with 5% CO2 for 24 h.
# (§2) After this initial time period the cell cultures are treated with the respective active compound. A non treated sample is used as reference.
# (§3) The following active compounds are used in the above method: • Ectoin (Merck KGaA, Germany) 0.5% w/v dissolved in culture medium. • Ectoin (Merck KGaA, Germany) 0.3% w/v dissolved in culture medium • N-acetyl-cysteine (NAC) (Sigma-Aldrich) 2.5 mM, as internal reference
# (§4) After a time period of 24 h, stress is induced in the samples by treatment with blue light irradiation (460 nm) or UVA irradiation (365 nm). In addition, samples not treated with an active compound are left non-irradiated for comparison.
# UVA irradiation (365 nm): • Source: LED • Irradiance: 50 mW/cm^2 • Dose: 33 J/cm^2 (i.e. less intense than 15 minutes at noon in the middle European sunlight) • Irradiation time: 11 min […]
# (§5) In situ detection of carbonylated proteins: After thawing of the samples, protein extraction from cells is performed using OxiProteomics' validated protocols. Extracted proteins are solubilized and quantified by the Bradford method (Bradford, 1976, Anal. Biochem., 72, 248) using calibrated BSA as standard. […] Quantification is obtained from each sample, both for carbonylated and total proteins.
# HaCaT keratinocytes [4] = experiment: Protective effect against blue light induced carbonylated protein formation (SDS-PAGE, fluorescent labelling); conditions: 24 h, blue light 460 nm 35 J/cm^2, FIGS. 5 and 6
# Experimental: as §1, §2, §3, §4
# Blue light irradiation (460 nm): • Source: LED • Irradiance: 53 mW/cm^2 • Dose: 35 J/cm^2 (corresponding to the emission of a computer screen during 8 h/d for 3 days) • Irradiation time: 11 min […]
# as §5
Compound,level of intracellular CPs (HaCaT keratinocytes [1]),CP accumulation through oleic acid (HaCaT keratinocytes [2]),protective effect against UVA induced protein carbonylation (HaCaT keratinocytes [3]; ectoin 0.3% w/v),protective effect against UVA induced protein carbonylation (HaCaT keratinocytes [3]; ectoin 0.5% w/v),protective effect against blue light induced protein carbonylation (HaCaT keratinocytes [4]; ectoin 0.3% w/v),protective effect against blue light induced protein carbonylation (HaCaT keratinocytes [4]; ectoin 0.5% w/v)
CCCCCCCC/C=C\CCCCCCCC(=O)O [oleic acid],higher level of intracellular CPs,–,–,–,–,–
"CC1=N[C@H](C(=O)O)CCN1 [ectoin, (S)-1,4,5,6-tetrahydro-2-methyl-4-pyrimidincarboxylic acid]",–,suppression of CP accumulation,significant protective effect,No significant comparison,significant protective effect,significant protective effect
